Reference: EP3025717A1, “SYNERGISTIC PHARMACEUTICAL COMPOSITION OF TWO ANALGESICS HAVING A DISTINCT PHARMACOKINETIC PROFILE” (FARMACÉUTICOS RAYERE, S.A., priority 2013, dated 2014)

Columns and labels:
[1] = tested on: acute inflammatory pain; test: Formalin model of acute inflammatory pain in mice, isobolographic analysis; type: in vivo, ICR male mice; details: Mus musculus, ip; individual drug, intraperitoneal, 20 minutes before formalin, phase 2 (15 to 45 minutes); read-out: DE30 (dose causing 30% anti-nociceptive effect)
Procedure: The duration of the experiment was always as short as possible, considering that the number of animals used was the minimum necessary. […] Transparent cylinders of 20 cm diameter X 40 cm high were used, with mirrors. At the start of the experiment, the mice were placed in cylinders for a period of 60 minutes to settle. After this time, the mice were removed for the administration of 20 μL formalin (3% formaldehyde solution). Immediately after formalin administration, the mouse was returned to the cylinder for observing the characteristic behaviour, which consists in counting the number of licks of the injected paw during 5-minute periods to a total time of 45 minutes. […] Groups of animals were used with an average n ≥ 6. Physiological saline solution (0.9) was administered intraperitoneally as a control of each experimental set. […] The percentage of anti-nociception was plotted according to the dose of both analgesics individually or in combination. The data of the dose-response curve were analysed by a variance analysis (ANOVA), followed by a Tukey test. […] The doses used for this assay correspond to those reported as effective in humans, considering that an average human weighs 60 kg.

[2] = cited from earlier work
[3] = tested on: COX-1 and COX-2; details: in vitro; cited from earlier work

Row | SMILES | ED30 [1] [mg/kg] | percentage of native drug in the faeces ([2]; faeces) [%] | administered dose excreted in the urine ([2]; mostly as metabolites) [%] | absolute bio-availability ([2]; oral administration) [%] | Tmax ([2]; plasma) [h] | increase of the maximum plasma concentrations by food ([2]; presence of food) [%] | plasma concentrations observed in synovial fluid ([2]; synovial fluid) | percentage of native drug in the urine ([2]; urine) [%] | ratio Cl50COX-2/Cl50COX-1 (inhibits more the constitutive COX-1 than the COX-2) [3] [times]
1 | Cc1cnc(NC(=O)C2=C(O)c3ccccc3S(=O)(=O)N2C)s1 [MXC, 4-hydroxy-2-methyl-N-(5-methyl-2-thiazolyl)-2H-1,2-benzothiazine-3-carboxamide-1,1-dioxide] | 0.12 ± 0.004 | 1.6 | 43 | 90 | 5 to 6 | 22 | 40-50% | 0.2 | 
2 | CC(=O)Oc1ccccc1C(=O)O [aspirin, acetylsalicylic acid] |  |  |  |  |  |  |  |  | 166
